Results published in patent US20100267561A1, “HERBICIDAL PYRIDAZINONE DERIVATIVES” (priority 2007, published 2010).

Assays:
Test in all cases: Test B pre-/postemergence plant response
Type in all cases: in vivo
[1] = test system: morningglory (Ipomoea coccinea); settings: for Morningglory plant response rating: 8 g ai/ha
Summary of the method: (§1)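 Preemergence and postemergence (plants 2-18 cm, 1- to 4-leaf stage) applications used test chemicals in a non-phytotoxic solvent with surfactant. Plants were held in a greenhouse 13 to 15 days, then rated visually against controls on a 0-100 scale (0 no effect, 100 complete control).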

[2] = test system: green foxtail (Setaria viridis); settings: for Foxtail, Green plant response rating: 8 g ai/ha
Summary of the method: as §1

kochia (Kochia scoparia) = settings: for Kochia plant response rating: 8 g ai/ha
Summary of the method: as §1

[3] = test system: common (oilseed) sunflower (Helianthus annuus); settings: Preemergence
Summary of the method: as §1

[4] = test system: eastern black (E.B.) nightshade (Solanum ptycanthum); settings: Preemergence; for Nightshade, E. B. plant response rating: 8 g ai/ha
Summary of the method: as §1

[5] = test system: surinam grass (Brachiaria decumbens); settings: for Surinam Grass plant response rating: 8 g ai/ha
Summary of the method: as §1

[6] = test system: lambsquarters (Chenopodium album); settings: for Lambsquarters plant response rating: 8 g ai/ha
Summary of the method: as §1

[7] = test system: large crabgrass (Digitaria sanguinalis); settings: for Crabgrass, Large plant response rating: 8 g ai/ha
Summary of the method: as §1

[8] = test system: blackgrass (Alopecurus myosuroides); settings: for Blackgrass plant response rating: 8 g ai/ha
Summary of the method: as §1

[9] = test system: common ragweed (Ambrosia elation); settings: for Ragweed plant response rating: 8 g ai/ha
Summary of the method: as §1

[10] = test system: wheat (Triticum aestivum); settings: for Wheat plant response rating: 8 g ai/ha
Summary of the method: as §1

[11] = test system: goosegrass (Eleusine indica); settings: for Goosegrass plant response rating: 8 g ai/ha
Summary of the method: as §1

wild oat (Avena fatua) = settings: for Oat, Wild plant response rating: 8 g ai/ha
Summary of the method: as §1

soybean (Glycine max) = settings: for Soybean plant response rating: 8 g ai/ha
Summary of the method: as §1

[12] = Postemergence, 16 g ai/ha, scale 0 to 100
[13] = Postemergence, 31 g ai/ha, scale 0 to 100, 0 no effect, 100 complete control
[14] = Postemergence, 62 g ai/ha, scale 0 to 100
[15] = Preemergence, 16 g ai/ha, scale 0 to 100 (0 no effect, 100 complete control)
[16] = Preemergence, 31 g ai/ha, 0 to 100 scale, 0 no effect, 100 complete control
[17] = Preemergence, 62 g ai/ha, scale 0 to 100
[18] = 16 g ai/ha, scale 0 to 100 (0 no effect, 100 complete control)
[19] = 31 g ai/ha, 0 to 100 scale, 0 no effect, 100 complete control
[20] = Postemergence, 62 g ai/ha, scale 0 to 100, 0 no effect, 100 complete control

CCc1cc(-c2ccc(Cl)cc2)nn1-c1c(O)cnn(C)c1=O [Compound 21]
0: Morningglory plant response rating ([1]; postemergence, 0-100 scale) | Plant response rating, Morningglory [1, 12] | Plant response rating, Morningglory [1, 13] | Plant response rating, Morningglory [1, 14] | Plant response rating, Morningglory [1, 15] | Plant response rating, Morningglory [1, 16] | Plant response rating, Morningglory [1, 17] | Morningglory plant response rating ([1]; Preemergence, scale 0 to 100) | Kochia plant response rating (kochia (Kochia scoparia); postemergence, 0-100 scale) | Plant response rating, Kochia (kochia (Kochia scoparia); [12]) | Plant response rating, Kochia (kochia (Kochia scoparia); [13]) | Plant response rating, Kochia (kochia (Kochia scoparia); [14]) | Plant response rating, Kochia (kochia (Kochia scoparia); [15]) | Plant response rating, Kochia (kochia (Kochia scoparia); [16]) | Plant response rating, Kochia (kochia (Kochia scoparia); [17]) | Kochia plant response rating (kochia (Kochia scoparia); Preemergence, scale 0 to 100) | Plant response rating, Sunflower [3, 18] | Plant response rating, Sunflower [3, 19] | Plant response rating, Sunflower ([3]; 62 g ai/ha, scale 0 to 100) | Plant response rating, Nightshade, E. B. [4, 18] | Plant response rating, Nightshade, E. B. [4, 19] | Nightshade, E. B. plant response rating ([4]; scale 0 to 100) | Lambsquarters plant response rating ([6]; postemergence, 0-100 scale) | Plant response rating, Lambsquarters [6, 12] | Plant response rating, Lambsquarters [6, 13] | Plant response rating, Lambsquarters [6, 14] | Plant response rating, Lambsquarters [6, 15] | Lambsquarters plant response rating ([6]; Preemergence, scale 0 to 100) | Crabgrass, Large plant response rating ([7]; Preemergence, scale 0 to 100) | Ragweed plant response rating ([9]; postemergence, 0-100 scale) | Plant response rating, Ragweed [9, 12] | Plant response rating, Ragweed [9, 13] | Plant response rating, Ragweed [9, 14] | Plant response rating, Ragweed [9, 15] | Plant response rating, Ragweed [9, 16] | Plant response rating, Ragweed [9, 17] | Ragweed plant response rating ([9]; Preemergence, scale 0 to 100) | Wheat plant response rating ([10]; Preemergence, scale 0 to 100) | Soybean plant response rating (soybean (Glycine max); postemergence, 0-100 scale) | Plant response rating, Soybean (soybean (Glycine max); [12]) | Plant response rating, Soybean (soybean (Glycine max); [13]) | Plant response rating, Soybean (soybean (Glycine max); [16])
10: Goosegrass plant response rating ([11]; Preemergence, scale 0 to 100) | Plant response rating, Soybean (soybean (Glycine max); [14])
80: Plant response rating, Crabgrass, Large [7, 15] | Plant response rating, Crabgrass, Large [7, 16] | Plant response rating, Goosegrass [11, 12] | Plant response rating, Goosegrass [11, 15]
65: Goosegrass plant response rating ([11]; postemergence, 0-100 scale) | Oat, Wild plant response rating (wild oat (Avena fatua); Preemergence, scale 0 to 100)
100: Plant response rating, Foxtail, Green [2, 12] | Plant response rating, Foxtail, Green [2, 13] | Plant response rating, Foxtail, Green [2, 14] | Plant response rating, Foxtail, Green [2, 15] | Plant response rating, Foxtail, Green [2, 16] | Plant response rating, Foxtail, Green [2, 17] | Foxtail, Green plant response rating ([2]; Preemergence, scale 0 to 100) | Surinam Grass plant response rating ([5]; postemergence, 0-100 scale) | Plant response rating, Surinam Grass [5, 12] | Plant response rating, Surinam Grass [5, 13] | Plant response rating, Surinam Grass [5, 14] | Plant response rating, Surinam Grass [5, 15] | Plant response rating, Surinam Grass [5, 17] | Plant response rating, Lambsquarters [6, 16] | Plant response rating, Lambsquarters [6, 17] | Plant response rating, Crabgrass, Large [7, 12] | Plant response rating, Crabgrass, Large [7, 13] | Plant response rating, Crabgrass, Large [7, 14] | Plant response rating, Crabgrass, Large [7, 17] | Plant response rating, Blackgrass [8, 13] | Plant response rating, Blackgrass [8, 14] | Plant response rating, Blackgrass [8, 15] | Plant response rating, Blackgrass [8, 16] | Plant response rating, Blackgrass [8, 17] | Plant response rating, Wheat [10, 14] | Plant response rating, Goosegrass [11, 14] | Plant response rating, Goosegrass [11, 17] | Plant response rating, Oat, Wild (wild oat (Avena fatua); [12]) | Plant response rating, Oat, Wild (wild oat (Avena fatua); [13]) | Plant response rating, Oat, Wild (wild oat (Avena fatua); [14])
85: Plant response rating, Wheat [10, 12] | Plant response rating, Wheat [10, 16] | Plant response rating, Oat, Wild (wild oat (Avena fatua); [15])
90: Plant response rating, Wheat [10, 13] | Plant response rating, Oat, Wild (wild oat (Avena fatua); [16])
30: Plant response rating, Wheat [10, 15]
98: Surinam Grass plant response rating ([5]; Preemergence, scale 0 to 100) | Oat, Wild plant response rating (wild oat (Avena fatua); postemergence, 0-100 scale)
50: Wheat plant response rating ([10]; postemergence, 0-100 scale)
95: Foxtail, Green plant response rating ([2]; postemergence, 0-100 scale) | Crabgrass, Large plant response rating ([7]; postemergence, 0-100 scale) | Blackgrass plant response rating ([8]; postemergence, 0-100 scale) | Plant response rating, Blackgrass [8, 12] | Blackgrass plant response rating ([8]; Preemergence, scale 0 to 100) | Plant response rating, Wheat [10, 17] | Plant response rating, Goosegrass [11, 13] | Plant response rating, Goosegrass [11, 16] | Plant response rating, Oat, Wild (wild oat (Avena fatua); [17])

Cc1cc(-c2ccc(Cl)cc2)nn1-c1c(OC(=O)c2cccc(Cl)c2)cnn(C)c1=O [Compound 32]
35: Plant response rating, Blackgrass [8, 12]
95: Plant response rating, Foxtail, Green [2, 20] | Plant response rating, Crabgrass, Large [7, 13] | Plant response rating, Blackgrass [8, 16] | Plant response rating, Oat, Wild (wild oat (Avena fatua); [13]) | Plant response rating, Oat, Wild (wild oat (Avena fatua); [20])
20: Crabgrass, Large plant response rating ([7]; Preemergence, scale 0 to 100) | Plant response rating, Wheat [10, 16]
75: Plant response rating, Surinam Grass [5, 15]
30: Blackgrass plant response rating ([8]; postemergence, 0-100 scale) | Plant response rating, Wheat [10, 12]
60: Foxtail, Green plant response rating ([2]; postemergence, 0-100 scale) | Plant response rating, Foxtail, Green [2, 12] | Crabgrass, Large plant response rating ([7]; postemergence, 0-100 scale) | Goosegrass plant response rating ([11]; Preemergence, scale 0 to 100) | Oat, Wild plant response rating (wild oat (Avena fatua); postemergence, 0-100 scale) | Plant response rating, Oat, Wild (wild oat (Avena fatua); [16])
80: Plant response rating, Oat, Wild (wild oat (Avena fatua); [17])
0: Morningglory plant response rating ([1]; postemergence, 0-100 scale) | Plant response rating, Morningglory [1, 12] | Plant response rating, Morningglory [1, 13] | Plant response rating, Morningglory [1, 20] | Plant response rating, Morningglory [1, 15] | Plant response rating, Morningglory [1, 16] | Plant response rating, Morningglory [1, 17] | Morningglory plant response rating ([1]; Preemergence, scale 0 to 100) | Kochia plant response rating (kochia (Kochia scoparia); postemergence, 0-100 scale) | Plant response rating, Kochia (kochia (Kochia scoparia); [12]) | Plant response rating, Kochia (kochia (Kochia scoparia); [13]) | Plant response rating, Kochia (kochia (Kochia scoparia); [20]) | Plant response rating, Kochia (kochia (Kochia scoparia); [15]) | Plant response rating, Kochia (kochia (Kochia scoparia); [16]) | Plant response rating, Kochia (kochia (Kochia scoparia); [17]) | Kochia plant response rating (kochia (Kochia scoparia); Preemergence, scale 0 to 100) | Plant response rating, Sunflower [3, 18] | Plant response rating, Sunflower [3, 19] | Plant response rating, Sunflower ([3]; 62 g ai/ha, scale 0 to 100) | Sunflower plant response rating ([3]; 8 g ai/ha, scale 0 to 100) | Plant response rating, Nightshade, E. B. [4, 18] | Plant response rating, Nightshade, E. B. [4, 19] | Plant response rating, Nightshade, E. B. ([4]; 62 g ai/ha, scale 0 to 100) | Nightshade, E. B. plant response rating ([4]; scale 0 to 100) | Lambsquarters plant response rating ([6]; postemergence, 0-100 scale) | Plant response rating, Lambsquarters [6, 12] | Plant response rating, Lambsquarters [6, 13] | Plant response rating, Lambsquarters [6, 20] | Plant response rating, Lambsquarters [6, 15] | Plant response rating, Lambsquarters [6, 16] | Plant response rating, Lambsquarters [6, 17] | Lambsquarters plant response rating ([6]; Preemergence, scale 0 to 100) | Ragweed plant response rating ([9]; postemergence, 0-100 scale) | Plant response rating, Ragweed [9, 12] | Plant response rating, Ragweed [9, 13] | Plant response rating, Ragweed [9, 20] | Plant response rating, Ragweed [9, 15] | Plant response rating, Ragweed [9, 16] | Plant response rating, Ragweed [9, 17] | Ragweed plant response rating ([9]; Preemergence, scale 0 to 100) | Wheat plant response rating ([10]; postemergence, 0-100 scale) | Plant response rating, Wheat [10, 15] | Wheat plant response rating ([10]; Preemergence, scale 0 to 100) | Goosegrass plant response rating ([11]; postemergence, 0-100 scale) | Plant response rating, Oat, Wild (wild oat (Avena fatua); [15]) | Oat, Wild plant response rating (wild oat (Avena fatua); Preemergence, scale 0 to 100) | Soybean plant response rating (soybean (Glycine max); postemergence, 0-100 scale) | Plant response rating, Soybean (soybean (Glycine max); [12]) | Plant response rating, Soybean (soybean (Glycine max); [20]) | Plant response rating, Soybean (soybean (Glycine max); [15]) | Plant response rating, Soybean (soybean (Glycine max); [16]) | Plant response rating, Soybean (soybean (Glycine max); [17]) | Soybean plant response rating (soybean (Glycine max); Preemergence, scale 0 to 100)
65: Surinam Grass plant response rating ([5]; postemergence, 0-100 scale) | Plant response rating, Goosegrass [11, 12]
100: Plant response rating, Foxtail, Green [2, 15] | Plant response rating, Foxtail, Green [2, 16] | Plant response rating, Foxtail, Green [2, 17] | Plant response rating, Surinam Grass [5, 16] | Plant response rating, Surinam Grass [5, 17] | Plant response rating, Crabgrass, Large [7, 16] | Plant response rating, Crabgrass, Large [7, 17] | Plant response rating, Goosegrass [11, 17]
70: Foxtail, Green plant response rating ([2]; Preemergence, scale 0 to 100) | Plant response rating, Surinam Grass [5, 12] | Surinam Grass plant response rating ([5]; Preemergence, scale 0 to 100) | Plant response rating, Blackgrass [8, 13] | Plant response rating, Blackgrass [8, 20] | Plant response rating, Wheat [10, 17] | Plant response rating, Goosegrass [11, 13] | Plant response rating, Goosegrass [11, 20]
90: Plant response rating, Foxtail, Green [2, 13]
98: Plant response rating, Surinam Grass [5, 20] | Plant response rating, Crabgrass, Large [7, 20] | Plant response rating, Blackgrass [8, 17] | Plant response rating, Goosegrass [11, 15] | Plant response rating, Goosegrass [11, 16]
85: Plant response rating, Crabgrass, Large [7, 12] | Plant response rating, Crabgrass, Large [7, 15] | Plant response rating, Blackgrass [8, 15] | Plant response rating, Oat, Wild (wild oat (Avena fatua); [12])
